Measurements from ChEMBL document CHEMBL1201862, “PubChem BioAssay data set” (2004).
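These data come from cells grown in 96-well plates and exposed to compound for 48 hours at five concentrations. GI50: concentration for 50% inhibition of growth.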 Calls of active or inactive are those of the source. Cut-off read from the data, not from the text of the source: active = GI50 up to about 1.1 µM and inactive = higher.

Assays:
Test in all cases: NCI anticancer screen, dose series, 48 h
[1] = test system: A549
[2] = test system: CAKI-1
[3] = test system: HCC 2998
[4] = test system: HCT-15
[5] = test system: KM12
[6] = test system: Malme-3M
[7] = test system: NCI-H23
[8] = test system: NCI-H522
[9] = test system: OVCAR-4
[10] = test system: RPMI-8226
[11] = test system: RXF 393
[12] = test system: SF-268
[13] = test system: SK-MEL-5
[14] = test system: SK-OV-3
[15] = test system: TK-10
[16] = test system: U-251
[17] = test system: UACC-62
[18] = test system: UO-31

SMILES	GI50 [1]	GI50 [2]	GI50 [3]	GI50 [4] [µM]	GI50 [5]	GI50 [6]	GI50 [7]	GI50 [8]	GI50 [9]	GI50 [10]	GI50 [11]	GI50 [12]	GI50 [13]	GI50 [14]	GI50 [15]	GI50 [16]	GI50 [17]	GI50 [18]
O=C1N(c2ccccc2)C2(O)C(=O)c3ccccc3C2(O)N1c1ccccc1 (stereo not drawn)	> 100 µM (inactive)	> 100 µM (inactive)	> 100 µM (inactive)	> 100	> 100 µM (inactive)	> 100 µM (inactive)	> 100 µM (inactive)	> 100 µM (inactive)	> 100 µM (inactive)	> 100 µM (inactive)	> 100 µM (inactive)	> 100 µM (inactive)	> 100 µM (inactive)	> 100 µM (inactive)	> 100 µM (inactive)	> 100 µM (inactive)	> 100 µM (inactive)	> 100 µM (inactive)
CCCc1c[nH]c(-c2ccc(-c3cc(CCC)c(C=O)[nH]3)s2)c1	5.83 µM (inactive)	–	–	14.6	14.7 µM (inactive)	15.2 µM (inactive)	26.5 µM (inactive)	16 µM (inactive)	18.9 µM (inactive)	–	21.7 µM (inactive)	18.3 µM (inactive)	16.9 µM (inactive)	18.5 µM (inactive)	15.3 µM (inactive)	15.6 µM (inactive)	16.9 µM (inactive)	0.0165 µM (active)
Clc1ccc(C[P+]2(c3ccccc3)CCCCC2)cc1.[O-][Cl+3]([O-])([O-])[O-]	> 100 µM (inactive)	–	43.6 µM (inactive)	> 100	77.4 µM (inactive)	58.5 µM (inactive)	85.5 µM (inactive)	28.8 µM (inactive)	–	32.2 µM (inactive)	> 100 µM (inactive)	–	20.3 µM (inactive)	> 100 µM (inactive)	77.8 µM (inactive)	45.5 µM (inactive)	37.2 µM (inactive)	> 100 µM (inactive)
O=[N+]([O-])c1cc(C2SCc3nc4ccccc4n32)ccc1Cl (stereo not drawn)	33.1 µM (inactive)	33.3 µM (inactive)	18.4 µM (inactive)	–	16.7 µM (inactive)	34.8 µM (inactive)	16.1 µM (inactive)	20 µM (inactive)	–	20.3 µM (inactive)	25.3 µM (inactive)	20.7 µM (inactive)	15 µM (inactive)	28.1 µM (inactive)	47.5 µM (inactive)	27.2 µM (inactive)	18.6 µM (inactive)	18.5 µM (inactive)
Cc1cc(C)cc(-n2c3nc(=O)n(C)c(=O)c-3nc3ccccc32)c1	26.7 µM (inactive)	37.8 µM (inactive)	18.1 µM (inactive)	21	27.1 µM (inactive)	16 µM (inactive)	15.7 µM (inactive)	17.5 µM (inactive)	18.5 µM (inactive)	29.7 µM (inactive)	> 100 µM (inactive)	65.6 µM (inactive)	15.8 µM (inactive)	> 100 µM (inactive)	42.3 µM (inactive)	21.8 µM (inactive)	16.7 µM (inactive)	64.1 µM (inactive)
CCc1ccc(Cc2ccc(CC)c(NC(=O)C(=O)C3NC(=S)NC3=O)c2CC)c(CC)c1NC(=O)C(=O)C1NC(=S)NC1=O (stereo not drawn)	> 100 µM (inactive)	> 100 µM (inactive)	> 100 µM (inactive)	> 100	> 100 µM (inactive)	> 100 µM (inactive)	> 100 µM (inactive)	> 100 µM (inactive)	> 100 µM (inactive)	> 100 µM (inactive)	> 100 µM (inactive)	> 100 µM (inactive)	> 100 µM (inactive)	> 100 µM (inactive)	> 100 µM (inactive)	> 100 µM (inactive)	> 100 µM (inactive)	51.8 µM (inactive)
Nc1ccccc1SC(/C=C/NNC1=NN=C(c2ccccc2)C(c2ccccc2)N1)c1ccccc1 (stereo not drawn)	15.2 µM (inactive)	10.6 µM (inactive)	16.5 µM (inactive)	11.5	12.7 µM (inactive)	15.9 µM (inactive)	5.85 µM (inactive)	3.85 µM (inactive)	14.9 µM (inactive)	2.96 µM (inactive)	14 µM (inactive)	5.64 µM (inactive)	13.4 µM (inactive)	29.6 µM (inactive)	19 µM (inactive)	15 µM (inactive)	10.6 µM (inactive)	4.45 µM (inactive)
Cc1ccc(-n2cnc3c(N/N=C4\SCC(=O)N4c4ccccc4)ncnc32)cc1	11.9 µM (inactive)	6.01 µM (inactive)	–	2.3	1.07 µM (active)	4.39 µM (inactive)	3.37 µM (inactive)	3.52 µM (inactive)	8.75 µM (inactive)	0.597 µM (active)	2.33 µM (inactive)	4.88 µM (inactive)	3.9 µM (inactive)	14.6 µM (inactive)	3.63 µM (inactive)	4.72 µM (inactive)	4.37 µM (inactive)	1.15 µM (inactive)
CCn1cc(C(=O)O)c(=O)c2cc(F)c(N3CCNCC3)nc21 [ENOXACIN]	> 100 µM (inactive)	–	> 100 µM (inactive)	> 100	79.3 µM (inactive)	74.1 µM (inactive)	31.1 µM (inactive)	24.4 µM (inactive)	> 100 µM (inactive)	> 100 µM (inactive)	–	> 100 µM (inactive)	87.5 µM (inactive)	> 100 µM (inactive)	> 100 µM (inactive)	66.7 µM (inactive)	> 100 µM (inactive)	> 100 µM (inactive)
CCC1CC2C(=O)N(c3ccccc3)C(=O)C2c2[nH]c3ccccc3c21 (stereo not drawn)	24.6 µM (inactive)	–	29.3 µM (inactive)	60.8	31.2 µM (inactive)	14.1 µM (inactive)	71.8 µM (inactive)	–	4.61 µM (inactive)	22.5 µM (inactive)	21.5 µM (inactive)	24.5 µM (inactive)	30.8 µM (inactive)	13.6 µM (inactive)	31.9 µM (inactive)	28.5 µM (inactive)	19.5 µM (inactive)	31.6 µM (inactive)
COc1cc2c(c(OC(C)=O)c1OC(C)=O)-c1ccc(SC)c(=O)cc1C(NC(C)=O)CC2 (stereo not drawn)	3.73 µM (inactive)	11.2 µM (inactive)	2.51 µM (inactive)	31.7	0.544 µM (active)	1.34 µM (inactive)	1.92 µM (inactive)	0.379 µM (active)	9.82 µM (inactive)	1.36 µM (inactive)	8.91 µM (inactive)	1.38 µM (inactive)	0.631 µM (active)	> 19.5 µM (inactive)	28.7 µM (inactive)	2.49 µM (inactive)	1.12 µM (inactive)	89.1 µM (inactive)
Cc1ccc(C2=[N+]([O-])c3ccccc3C2=O)cc1	46.7 µM (inactive)	> 100 µM (inactive)	> 51.3 µM (inactive)	16.5	17 µM (inactive)	22.9 µM (inactive)	19.2 µM (inactive)	15.8 µM (inactive)	–	29.4 µM (inactive)	17.7 µM (inactive)	35.1 µM (inactive)	13.6 µM (inactive)	> 100 µM (inactive)	> 31.6 µM (inactive)	19 µM (inactive)	17.5 µM (inactive)	> 56.1 µM (inactive)
CC1=C(C(=O)Nc2cc(=O)n(C)c(=O)n2C)C(c2ccc([N+](=O)[O-])cc2)C(C(=O)Nc2cc(=O)n(C)c(=O)n2C)=C(C)N1	> 100 µM (inactive)	–	94.8 µM (inactive)	> 100	> 100 µM (inactive)	> 100 µM (inactive)	> 100 µM (inactive)	37.1 µM (inactive)	31.5 µM (inactive)	59.6 µM (inactive)	> 100 µM (inactive)	> 100 µM (inactive)	–	32.3 µM (inactive)	> 100 µM (inactive)	> 100 µM (inactive)	26.5 µM (inactive)	21.8 µM (inactive)
O=S1(=O)c2cc(S(=O)(=O)n3ccnc3)ccc2NC2=NCCCN21	34.2 µM (inactive)	38.8 µM (inactive)	23 µM (inactive)	–	24.8 µM (inactive)	37.9 µM (inactive)	30.7 µM (inactive)	14.2 µM (inactive)	47.4 µM (inactive)	50 µM (inactive)	–	41.2 µM (inactive)	20.2 µM (inactive)	20.3 µM (inactive)	61 µM (inactive)	21.3 µM (inactive)	48.5 µM (inactive)	31 µM (inactive)
O=C1c2ccccc2S[C@@H](O)[C@@H]2CCCN12	> 100 µM (inactive)	–	> 100 µM (inactive)	> 100	> 100 µM (inactive)	> 100 µM (inactive)	> 100 µM (inactive)	> 100 µM (inactive)	–	> 100 µM (inactive)	> 100 µM (inactive)	> 100 µM (inactive)	> 100 µM (inactive)	35.2 µM (inactive)	> 100 µM (inactive)	> 100 µM (inactive)	47.9 µM (inactive)	> 100 µM (inactive)
CC(=O)CC(=O)Nc1ccccc1C(F)(F)F	> 100 µM (inactive)	> 100 µM (inactive)	> 100 µM (inactive)	> 100	–	> 100 µM (inactive)	> 100 µM (inactive)	> 100 µM (inactive)	> 100 µM (inactive)	> 100 µM (inactive)	> 100 µM (inactive)	> 100 µM (inactive)	> 100 µM (inactive)	> 100 µM (inactive)	> 100 µM (inactive)	> 100 µM (inactive)	> 100 µM (inactive)	> 100 µM (inactive)
FC(F)(F)c1ccccc1/C=N/C12CC3CC(CC(C3)C1)C2	> 100 µM (inactive)	> 100 µM (inactive)	> 100 µM (inactive)	> 100	> 100 µM (inactive)	> 100 µM (inactive)	> 100 µM (inactive)	–	> 100 µM (inactive)	> 100 µM (inactive)	> 100 µM (inactive)	> 100 µM (inactive)	6.03 µM (inactive)	> 100 µM (inactive)	> 100 µM (inactive)	> 100 µM (inactive)	–	0.908 µM (active)
